How the values were obtained:
Format in all cases: in vivo, BALB/c mice
COX-2 and PGE2 = assay: Renal COX-2 (Western blot) and serum PGE2 (ELISA) in mouse FSGS model; conditions: osthole 30 mg/kg daily intraperitoneal, 28th day
Description: Experiments were performed on 8-week-old female BALB/c mice. The mice were separated into 3 groups at 8-weeks old. One of the groups were injected intravenously with normal saline to be used as normal controls, where the pathological control group and the osthole treated group were intravenously injected with a single dose of adriamycin (0.1 mg/10 g body weight) to induce FSGS, wherein the osthole treated group is intraperitoneally injected with osthole at a daily dose of 30 mg/kg body weight starting from 6 hours before FSGS induction by adriamycin. […]
Cytoplasmic and nuclear proteins were extracted from renal tissues using a Nuclear Extract Kit (Active Motif, Tokyo, Japan) according to the manufacturer's instructions. […] Target proteins were detected by Western blot analysis using primary antibodies against mouse Nrf2 (Santa Cruz), COX-2 (Santa Cruz), caspase-3 (Cell Signaling Technology, MA, USA), or caspase-9 (Cell Signaling Technology, MA, USA). […] Lastly, secondary antibodies were added and their signals were detected by chemiluminescence.
(§1) Serum PEG2 and renal HO-1 levels in mice were determined by enzyme linked immunosorbent assay according to the manufacturer's (R&D, U.S.A., Active Motif) instructions.

Nrf2 pathway = assay: Anti-oxidative signaling pathway in kidney tissues (Nrf2 Western blot, HO-1 ELISA, GPx activity) in mouse FSGS model; conditions: kidney tissue, osthole 30 mg/kg daily intraperitoneal, FIG. 6
Description: (§2) Experiments were performed on 8-week-old female BALB/c mice. The mice were separated into 3 groups at 8-weeks old. One of the groups were injected intravenously with normal saline to be used as normal controls, where the pathological control group and the osthole treated group were intravenously injected with a single dose of adriamycin (0.1 mg/10 g body weight) to induce FSGS, wherein the osthole treated group is intraperitoneally injected with osthole at a daily dose of 30 mg/kg body weight starting from 6 hours before FSGS induction by adriamycin. After intravenous injection of adriamycin, osthole was continuously given to the osthole treated group through intraperitoneal injection with a daily dose of 30 mg/kg body weight until they were sacrificed 28 days after FSGS induction. The pathological control group were given vehicle by intraperitoneal injection in the same fashion. Urine samples were collected in metabolic cages on days 3, 7, 14, and 21. Mice were sacrificed at day 7 or 28 post disease induction. Renal cortical tissues, spleen and serum were collected and stored properly for further analysis.
Cytoplasmic and nuclear proteins were extracted from renal tissues using a Nuclear Extract Kit (Active Motif, Tokyo, Japan) according to the manufacturer's instructions. Protein extract was separated by electrophoresis and blotted. Target proteins were detected by Western blot analysis using primary antibodies against mouse Nrf2 (Santa Cruz), COX-2 (Santa Cruz), caspase-3 (Cell Signaling Technology, MA, USA), or caspase-9 (Cell Signaling Technology, MA, USA). […] Lastly, secondary antibodies were added and their signals were detected by chemiluminescence.
as §1
GPx activity in renal tissues was measured using a commercial glutathione peroxidase assay kit (Cayman, Mich., USA) according to the manufacturer's instructions. […]

[1] = system: adriamycin induced FSGS mice; assay: F4/80 immunostaining of monocyte/macrophage infiltration in kidney tissues in mouse FSGS model; conditions: osthole 30 mg/kg daily intraperitoneal; 28th day; FIG. 7
Description: as §2, with “analysis. In addition, immunohistochemistry was also performed. […] A quantitative image analysis software Pax-it; […], Villa Park, Ill., USA) was used to analyze the staining results.” for “analysis.”

[2] = system: adriamycin induced FSGS mice; assay: Evaluation of renal fibrosis (collagen IV IHC, Sirius red staining) in mouse FSGS model; conditions: osthole 30 mg/kg daily intraperitoneal
Description: as §2, with “analysis. In addition, immunohistochemistry was also performed. […] A quantitative image analysis software Pax-it; […], Villa Park, Ill., USA) was used to analyze the staining results.” for “analysis.”

[3] = system: adriamycin induced FSGS mice; assay: TUNEL measurement of apoptosis in kidney tissues in mouse FSGS model; conditions: osthole 30 mg/kg daily intraperitoneal; 28th day; FIG. 10
Description: as §2, with “analysis. TUNEL (Terminal deoxynucleotidyl transferase dUTP nick end labeling) was used for the detection of apoptosis. Kidney sections were prepared by fixing with formalin and embedded in paraffin. […]” for “analysis.”

NF-κB p65 = NF-κB p65 immunostaining in kidney tissues in mouse FSGS model; conditions: osthole 30 mg/kg daily intraperitoneal; 28th day; FIG. 8
Description: as §2, with “analysis. In addition, immunohistochemistry was also performed. […] A quantitative image analysis software Pax-it; […], Villa Park, Ill., USA) was used to analyze the staining results.” for “analysis.”

[4] = system: adriamycin induced FSGS mice; assay: Analysis of urine protein and renal function in mouse FSGS model; conditions: osthole 30 mg/kg daily intraperitoneal, vs pathological control group
Description: as §2, with “analysis. Mice urine samples were collected by metabolic cages. Proteinuria was first tested with test paper, following the measurement of protein concentration with BCA Protein Assay Kit (PIERCE), where the urinary protein index was illustrated by 24-hour proteinuria (urinary protein concentration/urinary creatinine concentration). In addition, blood was collected through the eye socket, after separation, serum specimen was obtained, which was absorbed into Fuji Ori-Chem Slide and measured by machine (Fuji Photo Film Co., Tokyo, Japan) to read the data.” for “analysis.”

[5] = system: adriamycin induced FSGS mice; assay: Pathologic evaluation of kidney sections (H&E) in mouse FSGS model; conditions: osthole 30 mg/kg daily intraperitoneal; 7th and 28th day; FIG. 2
Description: as §2, with “analysis. […] Renal pathology was examined under optical microscope and renal lesions was scored. or EPHLs and sclerosis, at least 50 glomeruli in sections were examined for each mouse.” for “analysis.”

ROS (superoxide anion) = assay: Reactive oxygen species (ROS) determination in mouse FSGS model; conditions: osthole 30 mg/kg daily intraperitoneal, 28th day
Description: as §2, with “[…] Lucigenin was used to react with the ROS in urine, and detected with Hidex microplate luminometer (Finland), the results” for “Mice”, “represented as reactive luminescence units (RLU) per 15 min per milligram dry weight (i.e., RLU/15 min/mg dry weight). ROS in kidney tissues were detected with dihydroethidium (DHE),” for “sacrificed at day 7 or 28 post disease induction. Renal cortical tissues, spleen”, “quantitation was done by determining the ratio of signal positive nucleus/total nucleus in each kidney trans-section.” for “serum were collected and stored properly for further analysis.”

[6] = system: caspase-3, caspase-8 and caspase-9; assay: Western blot analysis of caspase-3, caspase-8 and caspase-9 in kidney tissues in mouse FSGS model; conditions: kidney tissue
Description: as §2, with “analysis. Cytoplasmic and nuclear proteins were extracted from renal tissues using a Nuclear Extract Kit (Active Motif, Tokyo, Japan) according to the manufacturer's instructions. Protein extract was separated by electrophoresis and blotted. Target proteins were detected by Western blot analysis using primary antibodies against mouse Nrf2 (Santa Cruz), COX-2 (Santa Cruz), caspase-3 (Cell Signaling Technology, MA, USA), or caspase-9 (Cell Signaling Technology, MA, USA). Antibodies against histone H3 (Cell Signaling, CO, USA) or β-actin (Santa Cruz) were used as internal controls for the nuclear and cytosolic target proteins, respectively. Lastly, secondary antibodies were added and their signals were detected by chemiluminescence.” for “analysis.”

[7] = osthole 30 mg/kg daily intraperitoneal, vs pathological control group, FIG. 11

COc1ccc2ccc(=O)oc2c1CC=C(C)C [osthole]
COX-2 expression level (renal) (COX-2 and PGE2; FIG. 9A-B): restored to levels similar to the normal control group | PGE2 expression level (serum) (COX-2 and PGE2; FIG. 9C): restored to levels similar to the normal control group | GPx activity (Nrf2 pathway): significantly increase HO-1 expression and GPx activity | HO-1 expression (Nrf2 pathway): significantly increase HO-1 expression and GPx activity | Nrf2 translocation into the nucleus (Nrf2 pathway; vs pathological control group): significantly increase the Nrf2 translocation | monocyte/macrophage infiltration (F4/80) in kidney tissues [1]: significantly reduced infiltration | fibrosis of the renal tissue (Sirius red staining) ([2]; 28th day, FIG. 4): suppress fibrosis of the renal tissue, similar to the normal control group | collagen IV expression in glomerular tissue (IHC) ([2]; FIG. 3): significantly suppress collagen IV expression in glomerular tissue | apoptosis in kidney tissues (TUNEL staining) [3]: can be suppressed by administration of osthole | NF-κB p65 nuclear translocation in kidney tissues (NF-κB p65): can be suppressed by osthole | urine protein concentration (urine protein/urine creatinine ratio) ([4]; 7th to 28th day, FIG. 1A): almost be completely suppressed | blood urea nitrogen (BUN) ([4]; 28th day, FIG. 1B): lower BUN and Cr concentration, similar to that of the normal control group | serum creatinine (Cr) ([4]; 28th day, FIG. 1C): lower BUN and Cr concentration, similar to that of the normal control group | disease progression of glomerular sclerosis (histopathology) [5]: significantly suppress the disease progression of glomerular sclerosis | superoxide anion (ROS) in serum (ROS (superoxide anion); FIG. 5A): suppressed exhibition of such phenomenon | superoxide anion (ROS) in kidney tissue (ROS (superoxide anion); FIG. 5B): suppressed exhibition of such phenomenon | expression level of caspase-8 ([6]; data not shown): did not show significant difference | caspase-3 in activated state (p17 fragment) [6, 7]: suppressed significantly | caspase-9 in activated state (p37 fragment) [6, 7]: suppressed significantly

From patent US9393226B2, “Use of osthole for treating focal segmental glomerulosclerosis” (National Defense Medical Center, priority 2014, dated 2016)
